Biological target: human HSP90a (recombinant N-terminal nucleotide binding domain) (Homo sapiens (Human), UniProt P07900)
Experiment: Competition fluorescence polarization binding assay with TSD-FP probe
Settings: method of Example A-1; incubation time not stated; read-out: Binding Affinity IC50
Procedure: The reaction can be followed kinetically using fluorescence (excitation λ=485 nm; emission λ=538 nm). The binding affinity of the test compound to HSP90 is determined by the changes in the polarized fluorescence; the intensity of the polarized fluorescence is proportional to the fraction of bound probe. A novel small molecule fluorescence probe, (S,E)-5-(2-(2-amino-7-(4-fluoro-2-(6-methoxypyridin-2-yl)phenyl)-4-methyl-7,8-dihydroquinazolin-5(6H)-ylideneaminooxy)ethylcarbamoyl)-2-(6-hydroxy-3-oxo-3H-xanthen-9-yl)benzoic acid (TSD-FP probe) was specifically developed for the assay. Inhibition constants (IC50) may be calculated by non-linear curve fitting of the compound concentrations and fluorescence intensities to the standard IC50 equation.
The sequence of human wild-type HSP90a is well known in the art; see, Chen B. et al. Genomics 2005.86:627-637. The gene encoding HSP90a can be isolated from RNA, cDNA or cDNA libraries. In this case, the gene encoding residues 9-236 of image clone 5270926 of HSP90α (ATCC) was isolated. This portion of the gene encoding a section of human HSP90a that includes the N-terminal nucleotide binding domain of human HSP90a was cloned into pET28a vector (Novagen). The DNA sequence of the vector is shown in SEQ ID NO: 1. Expression from this vector produced a protein consisting of the recombinant N-terminal nucleotide binding domain of HSP90a with a cleavable 6′-histidine tag and a cleavage site at the N-terminus The amino acid sequence of this recombinant protein is shown in SEQ ID NO: 2.
Recombinant human N-terminal truncated His6-HSP90a was expressed in E. coli (BL21) cells with IPTG induction. Cell paste from 24×60 mL tubes (grown in a multi-tube airlift fermentor) was lysed using an automated sample lyser. Briefly, the pellet in each tube was suspended in 21 mL of lysis buffer consisting of 50 mM Tris pH 7.9, 50 mM NaCl, 1 mM MgCl2, 0.6 g/L Lysozyme (Sigma), 100 μL/L Benzonase (Novagen). […] After incubation, 5 M NaCl was added to bring the final salt concentration to 400 mM. The tubes were sonicated for 50 seconds and then centrifuged at 3400 rpm for 50 min. The supernatants were pooled and 4 ml of ProBond Ni resin (Invitrogen) was added. After at least 30 minutes, the resin was spun down, washed with 25 mM Tris pH 7.6, 400 mM NaCl, 20 mM imidazole, poured into a column and washed with 10 column volumes of the same buffer. The protein was eluted from the column using 3 column volumes of 25 mM Tris pH 7.6, 400 mM NaCl, 400 mM imidazole. The eluate was loaded onto a Supedex 200 column (GE Healthcare) equilibrated with 25 mM Tris pH 7.6, 250 mM NaCl, 0.25 mM TCEP, 1 mM EDTA and peak fractions were pooled and concentrated to ˜6 mg/mL using 10 kDA MWCO centrifugal concentrators (Millipore). Aliquots were flash frozen in liquid nitrogen and stored at −80° C. All purification was done at 4° C.
A fluorescein labeled small molecule was designed and synthesized as a probe (TSD-FP probe) for the determination of the binding affinity of the test compound to HSP90 proteins. The synthesis of the small molecule, (S,E)-2-amino-7-(4-fluoro-2-(6-methoxypyridin-2-yl)phenyl)-4-methyl-7,8-dihydroquinazolin-5(6H)-one O-2-aminoethyl oxime (Compound 24) was described in Examples 24 and 25 above. The TSD-FP probe was prepared according to the following procedure:
The inhibitory effect of the compounds of the invention against HSP90a was determined by fluorescence polarization assay. The assay was run in a black 384-well-plate and in an assay buffer comprising 25 mM Hepes pH 7.3, 150 mM NaCl, 0.1 mM EDTA, 0.01% Brij35, 1 mM DTT.
To each test well, an aliquot of buffer, 2 μl of test compound in 10% DMSO, 4 μl of 6.25 nM of TSD FP probe, 4 μl of 12.5 nM of purified HSP90a protein were added. […] For negative control, no inhibitor was added.

Structure (SMILES)	IC50 [nM]
COc1cccc(-c2cc(F)ccc2[C@H]2Cc3nc(N)nc(C)c3/C(=N/OCC(CO)CO)N2)n1 [Compound 35, (R,Z)-2-Amino-7-(4-fluoro-2-(6-methoxypyridin-2-yl)phenyl)-4-methyl-7,8-dihydropyrido[4,3-d]pyrimidin-5(6H)-one O-3-hydroxy-2-(hydroxymethyl)propyl oxime]	13
COc1cccc(-c2cc(F)ccc2[C@H]2Cc3nc(N)nc(C)c3/C(=N/OCC(=O)N(C)C[C@H](O)CO)N2)n1 [Compound 96, 2-((Z)—((R)-2-amino-7-(4-fluoro-2-(6-methoxypyridin-2-yl)phenyl)-4-methyl-7,8-dihydropyrido[4,3-d]pyrimidin-5(6H)-ylidene)aminooxy)-N—((S)-2,3-dihydroxypropyl)-N-methylacetamide]	13
COc1cccc(-c2cc(F)ccc2[C@H]2Cc3nc(N)nc(C)c3/C(=N/O)N2)n1 [Compound 61, (R,Z)-2-amino-7-(4-fluoro-2-(6-methoxypyridin-2-yl)phenyl)-4-methyl-7,8-dihydropyrido[4,3-d]pyrimidin-5(6H)-one oxime]	3
COc1cccc(-c2cc(F)ccc2[C@H]2Cc3nc(N)nc(C)c3/C(=N/OCC3CCC(O)CC3)N2)n1 (stereo partly drawn) [Compound 65, (R,Z)-2-amino-7-(4-fluoro-2-(6-methoxypyridin-2-yl)phenyl)-4-methyl-7,8-dihydropyrido[4,3-d]pyrimidin-5(6H)-one O-((1s,4S)-4-hydroxycyclohexyl)methyl oxime]	10
COc1cccc(-c2cc(F)ccc2[C@H]2Cc3nc(N)nc(C)c3/C(=N/OCCCCO)N2)n1 [Compound 79, (R,Z)-2-amino-7-(4-fluoro-2-(6-methoxypyridin-2-yl)phenyl)-4-methyl-7,8-dihydropyrido[4,3-d]pyrimidin-5(6H)-one O-4-hydroxybutyl oxime]	6
COc1cccc(-c2cc(F)ccc2[C@H]2Cc3nc(N)nc(C)c3/C(=N/OCC3C[C@@H](O)[C@@H](O)C3)N2)n1 (stereo partly drawn) [Compound 59, (7R,Z)-2-amino-7-(4-fluoro-2-(6-methoxypyridin-2-yl)phenyl)-4-methyl-7,8-dihydropyrido[4,3-d]pyrimidin-5(6H)-one O-((3R,4S)-3,4-dihydroxycyclopentyl)methyl oxime]	8
COc1cccc(-c2cc(F)ccc2[C@H]2Cc3nc(N)nc(C)c3/C(=N/OC[C@H]3O[C@@H](OC)[C@H](O)[C@@H]3O)N2)n1 (mixture of isomers) [Compound 45, (R,Z)-2-amino-7-(4-fluoro-2-(6-methoxypyridin-2-yl)phenyl)-4-methyl-7,8-dihydropyrido[4,3-d]pyrimidin-5(6H)-one O-((2R,3S,4R,5R)-3,4-dihydroxy-5-methoxytetrahydrofuran-2-yl)methyl oxime]	10
COc1cccc(-c2cc(F)ccc2[C@H]2Cc3nc(N)nc(C)c3/C(=N/OC[C@H](O)CO)N2)n1 [Compound 33, (R,Z)-2-Amino-7-(4-fluoro-2-(6-methoxypyridin-2-yl)phenyl)-4-methyl-7,8-dihydropyrido[4,3-d]pyrimidin-5(6H)-one O—(R)-2,3-dihydroxypropyl oxime]	4
COc1cccc(-c2cc(F)ccc2[C@H]2Cc3nc(N)nc(C)c3/C(=N/OCC(=O)N3CC[C@@H](F)C3)N2)n1 [Compound 85, 2-((Z)—((R)-2-amino-7-(4-fluoro-2-(6-methoxypyridin-2-yl)phenyl)-4-methyl-7,8-dihydropyrido[4,3-d]pyrimidin-5(6H)-ylidene)aminooxy)-1-((R)-3-fluoropyrrolidin-1-yl)ethanone]	4
COc1cccc(-c2cc(F)ccc2[C@H]2Cc3nc(N)nc(C)c3/C(=N/OCC(=O)N(C)C)N2)n1 [Compound 83, (R,Z)-2-(2-amino-7-(4-fluoro-2-(6-methoxypyridin-2-yl)phenyl)-4-methyl-7,8-dihydropyrido[4,3-d]pyrimidin-5(6H)-ylideneaminooxy)-N,N-dimethylacetamide]	8
COc1cccc(-c2cc(F)ccc2[C@H]2Cc3nc(N)nc(C)c3/C(=N/O[C@@H](CCO)C(=O)N(C)C)N2)n1 [Compound 93, (S)-2-((Z)—((R)-2-amino-7-(4-fluoro-2-(6-methoxypyridin-2-yl)phenyl)-4-methyl-7,8-dihydropyrido[4,3-d]pyrimidin-5(6H)-ylidene)aminooxy)-4-hydroxy-N,N-dimethylbutanamide]	8
COc1cccc(-c2cc(F)ccc2[C@H]2Cc3nc(N)nc(C)c3/C(=N/OCCCO)N2)n1 [Compound 78, (R,Z)-2-amino-7-(4-fluoro-2-(6-methoxypyridin-2-yl)phenyl)-4-methyl-7,8-dihydropyrido[4,3-d]pyrimidin-5(6H)-one O-3-hydroxypropyl oxime]	4
COc1cccc(-c2cc(F)ccc2[C@H]2Cc3nc(N)nc(C)c3/C(=N/OCC[C@H](O)CO)N2)n1 [Compound 37, (R,Z)-2-amino-7-(4-fluoro-2-(6-methoxypyridin-2-yl)phenyl)-4-methyl-7,8-dihydropyrido[4,3-d]pyrimidin-5(6H)-one O—(S)-3,4-dihydroxybutyl oxime]	6
COc1cccc(-c2cc(F)ccc2[C@H]2Cc3nc(N)nc(C)c3/C(=N/OCC(=O)N(C)CCO)N2)n1 [Compound 99, (R,Z)-2-(2-amino-7-(4-fluoro-2-(6-methoxypyridin-2-yl)phenyl)-4-methyl-7,8-dihydropyrido[4,3-d]pyrimidin-5(6H)-ylideneaminooxy)-N-(2-hydroxyethyl)-N-methylacetamide]	8
COc1cccc(-c2cc(F)ccc2[C@H]2Cc3nc(N)nc(C)c3/C(=N/OC3C[C@@H](O)[C@@H](O)C3)N2)n1 (stereo partly drawn) [Compound 58, (7R,Z)-2-amino-7-(4-fluoro-2-(6-methoxypyridin-2-yl)phenyl)-4-methyl-7,8-dihydropyrido[4,3-d]pyrimidin-5(6H)-one O-(3R,4S)-3,4-dihydroxycyclopentyl oxime]	5

Source: patent US8618290B2, “HSP90 inhibitors” (Takeda Pharmaceutical Company Limited, priority 2008, dated 2013)
